pEC50, pIC50: −log10 of the molar value. “Also recorded” adds a separate entry of the source. Like-named read-outs stand apart in the source and are kept apart here. Blank lines part the entries; values can stand above or below the compound they belong to.
Experiments:
Primary human AEC2s = experiment: AEC2 proliferation assay (Ki67 high content imaging); assay type: cell-based
Procedure: To identify small molecules capable of proliferating AEC2s, as disclosed herein, we first established a culture system with primary human small airway epithelial cells (SAECs) from a commercial source.
AEC2 proliferation assay. Primary human AEC2s were plated at a density of 1,500 cells per well in black 384-well plates (Greiner) coated with 10 ug/mL. Laminin (Life Technologies) in 50 μL of Small Airway Epithelial Cell Growth Medium (Lonza) without EGF, retinoic acid and with 5% BPE. 100 nL of compound dissolved in DMSO was then delivered using a Biomek FX instrument (Beckman Coulter) fitted with a pintool head (V&P Scientific).

alveolar epithelium = settings: Stone et al., Diab et al.; cited from earlier work
[1] = test system: human pulmonary fibroblasts; experiment: Pulmonary fibroblast counter-assay; assay type: cell-based; settings: at concentrations that promoted AEC2 proliferation
Human DPP4 = Human DPP4 (Homo sapiens (Human), UniProt P27487); experiment: DPP4 activity assay (Sigma-Aldrich MAK088 kit); assay type: biochemical; settings: Table 4; read-out: DPPIV IC50
Sequence of Human DPP4 (P27487 whole entry): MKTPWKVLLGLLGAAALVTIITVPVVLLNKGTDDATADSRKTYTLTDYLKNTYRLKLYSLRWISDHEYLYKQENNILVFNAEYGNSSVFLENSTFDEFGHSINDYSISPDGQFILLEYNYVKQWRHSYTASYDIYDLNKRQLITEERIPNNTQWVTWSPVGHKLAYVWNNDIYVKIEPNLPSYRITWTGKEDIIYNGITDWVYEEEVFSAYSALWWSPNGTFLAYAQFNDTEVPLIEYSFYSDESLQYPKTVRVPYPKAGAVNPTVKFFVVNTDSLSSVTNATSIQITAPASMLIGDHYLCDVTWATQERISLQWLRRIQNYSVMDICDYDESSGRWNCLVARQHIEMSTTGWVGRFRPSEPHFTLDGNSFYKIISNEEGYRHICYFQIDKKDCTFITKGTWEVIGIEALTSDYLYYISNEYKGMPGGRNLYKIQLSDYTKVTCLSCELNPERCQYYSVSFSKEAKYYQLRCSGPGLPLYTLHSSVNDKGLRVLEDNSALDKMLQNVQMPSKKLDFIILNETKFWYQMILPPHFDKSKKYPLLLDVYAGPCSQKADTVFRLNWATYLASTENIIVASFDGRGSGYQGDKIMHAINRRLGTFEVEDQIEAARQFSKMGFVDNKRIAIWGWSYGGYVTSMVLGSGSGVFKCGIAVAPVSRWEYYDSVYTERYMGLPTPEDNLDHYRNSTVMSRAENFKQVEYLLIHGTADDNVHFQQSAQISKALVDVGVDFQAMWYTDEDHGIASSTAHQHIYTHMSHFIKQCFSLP
Procedure: DPP4 activity assay. Human DPP4 activity assay data were obtained using a DPP4 Activity Assay Kit (Sigma-Aldrich, MAK088) according to the manufacturer's instructions. Briefly, 10 μL of DPP4 Assay Buffer was transferred per well in low volume 384-well plates before transferring 10 μL of diluted compound dissolved in DPP4 assay buffer. 5 μL of Master Reaction Mix containing a fluorescent substrate that becomes fluorescent upon cleavage by the enzyme. Fluorescence intensity measurements were recorded at 1-minute time intervals over the course of 20 minutes using an Envision Multimode Plate Reader (PerkinElmer).

[2] = IT pharmacokinetics of dutogliptin (1) and dutogliptin boronate (15); assay type: in vivo, mouse; settings: for Plasma concentration of dutogliptin, individual animals / Bronchoalveolar lavage fluids concentration of dutogliptin, individual animals / Lung concentration of dutogliptin, individual animals: mice, 1.8 mg/kg IT dutogliptin boronate (cpd 15)
Procedure: Like other […]. Dutogliptin (1) dosed IT in mice with PBS solution quickly cleared in lung (<24h. Table 8A). […] The parent drug dutogliptin was detected in plasma and lung. […] The drug was retained in the lung for over 48 h. The data clearly illustrated the unexpected lung retention ability of boronate prodrug 15.

[3] = test system: bleomycin-induced lung fibrosis; experiment: Bleomycin-induced lung fibrosis model; assay type: in vivo, mouse; settings: 0.5 mg/kg IT once every four days, versus vehicle
Procedure: Experimental Methods of Bleomycin Model Bleomycin (Hospira) was used to induce lung fibrosis in mice. Body weight matched (24 gram˜28 gram) male C57BL/6J mice at 10-12 weeks of age were selected to use in bleomycin model. For orally delivered DPP4 inhibitors. compounds were dissolved in PBS resulting in clear solution. […] For intratracheally delivered DPP4 inhibitors, compounds were dissolved in PBS resulting in clear solution. […] 0.5 U/kg Bleomycin or PBS in sham group was intratracheally injection into mice lung at day 0. […] All animals were sacrificed at day 20 after bleomycin injection. Bronchoalveolar lavage fluid (BALF) was retrieved using standard method. 1 ml 4% formalin was used to inflate the lung, which was subsequently fixed in 4% formalin for 24 hours and preserved in 70% EtOH until histological process. For readouts, body weight was measured every day; total protein content in BALF was quantified using BCA assay; pulmonary fibrosis was assessed using Masson's trichrome staining.

[4] = Homo sapiens, Table 4, promotion of AEC2 proliferation, read-out: AEC2 EC50
[5] = Homo sapiens, Table 5, read-out: AEC2 proliferation

pEC50 (Primary human AEC2s; [4]): 6.66 | pEC50 (Primary human AEC2s; [5]): 6.66
Structure (SMILES): N[C@@H](CC(=O)N1CCc2c(nc(C(F)(F)F)nc2C(F)(F)F)C1)CN1CC(F)(F)CCC1=O [Cpd 11, (S)-1-(2-amino-4-(2,4-bis(trifluoromethyl)-5,8-dihydropyrido[3,4-d]pyrimidin-7(6H)-yl)-4-oxobutyl)-5,5-difluoropiperidin-2-one]

Structure (SMILES): FC(F)(F)c1cccc(-c2noc(-c3cc(-c4ccccc4)c(C(F)(F)F)s3)n2)c1 [SEW-2871]
apoptosis and inflammatory cytokine release in alveolar epithelium (alveolar epithelium): inhibited apoptosis and inflammatory cytokine release | AEC2 proliferation, result in words (Primary human AEC2s): active

pEC50 (Primary human AEC2s; FIG. 1B, 1C, read-out: EC50, AEC2 proliferation (ReFRAME screen hits)): ~6.30
Structure (SMILES): N#Cc1ccc(NCCNCC(=O)N2CCC[C@H]2C#N)nc1 [NVP-728]
total number, percent Ki67 positivity, or myofibroblast differentiation status of pulmonary fibroblasts [1]: did not increase

pEC50 (Primary human AEC2s; Homo sapiens, FIG. 1B, 1C, read-out: EC50, AEC2 proliferation (ReFRAME screen hits)): ~7.00
Structure (SMILES): CCc1cc(/C(C)=N/OCc2ccc(C3CCCCC3)c(C(F)(F)F)c2)ccc1CN1CC(C(=O)O)C1 [siponimod]
total number, percent Ki67 positivity, or myofibroblast differentiation status of pulmonary fibroblasts [1]: did not increase

pIC50 (Human DPP4): 9.00
Structure (SMILES): COC(=O)C12CCC(NCC(=O)N3C[C@@H](F)C[C@H]3C#N)(CC1)CC2 [Cpd 17, methyl 4-((2-((2S,4S)-2-cyano-4-fluoropyrrolidin-1-yl)-2-oxoethyl)amino)bicyclo[2.2.2]octane-1-carboxylate]

pIC50 (Human DPP4): 7.42
Structure (SMILES): N#C[C@@H]1CCCN1C(=O)CNC12CC3C[C@H](CC(N)(C3)C1)C2 [Cpd 18, (2S)-1-(((1S,3R,5R)-3-aminoadamantan-1-yl)glycyl)pyrrolidine-2-carbonitrile]

pIC50 (Human DPP4): 8.66
Structure (SMILES): CCOC(=O)C12CCC(NCC(=O)N3C[C@@H](F)C[C@H]3C#N)(CC1)CC2 [Cpd 2, ethyl 4-((2-((2S,4S)-2-cyano-4-fluoropyrrolidin-1-yl)-2-oxoethyl)amino)bicyclo[2.2.2]octane-1-carboxylate]

pEC50 (Primary human AEC2s; [4]): 6.96 | pEC50 (Primary human AEC2s; [5]): 6.96
Structure (SMILES): Cc1cc2ncc(C(=O)NCC(C)(C)NCC(=O)N3CCC[C@H]3C#N)cn2n1 [Cpd 12, (S)-N-(2-((2-(2-cyanopyrrolidin-1-yl)-2-oxoethyl)amino)-2-methylpropyl)-2-methylpyrazolo[1,5-a]pyrimidine-6-carboxamide]

pIC50 (Human DPP4): 8.22
Structure (SMILES): CC#CCn1c(N2CCC[C@@H](N)C2)cc(=O)n(Cc2cccc(C(=O)OC)c2)c1=O [Cpd 25, methyl (R)-3-((4-(3-aminopiperidin-1-yl)-3-(but-2-yn-1-yl)-2,6-dioxo-3,6-dihydropyrimidin-1(2H)-yl)methyl)benzoate]

Structure (SMILES): CC(C)Oc1ccc(-c2nc(-c3cccc4c3CC[C@@H]4NCCO)no2)cc1C#N [Ozanimod]
AEC2 proliferation, result in words (Primary human AEC2s): active

plasma and lung levels of the boronate itself ([2]; IT dosing, data not shown): very low and absent after 0.25 h | Plasma concentration of dutogliptin, individual animals ([2]; 7.00 h): BQL | Plasma concentration of dutogliptin, individual animals ([2]; 24.0 h): BQL | Bronchoalveolar lavage fluids concentration of dutogliptin, individual animals ([2]; 48.0 h): BQL | Lung concentration of dutogliptin, individual animals ([2]; 48.0 h): BQL | Plasma concentration of dutogliptin, individual animals ([2]; 48.0 h): BQL | Bronchoalveolar lavage fluids concentration of dutogliptin, individual animals ([2]; 96.0 h): BQL | Lung concentration of dutogliptin, individual animals ([2]; 96.0 h): BQL | Plasma concentration of dutogliptin, individual animals ([2]; 96.0 h): BQL | Bronchoalveolar lavage fluids concentration of dutogliptin, individual animals ([2]; 168 h): BQL | Lung concentration of dutogliptin, individual animals ([2]; 168 h): BQL | Plasma concentration of dutogliptin, individual animals ([2]; 168 h): BQL
Structure (SMILES): CC1(C)[C@@H]2C[C@H]3OB([C@@H]4CCCN4C(=O)CN[C@@H]4CCNC4)O[C@@]3(C)[C@H]1C2 [Cpd 15, 2-(((R)-pyrrolidin-3-yl)amino)-1-((R)-2-((3aS,4S,6S,7aR)-3a,5,5-trimethylhexahydro-4,6-methanobenzo[d][1,3,2]dioxaborol-2-yl)pyrrolidin-1-yl)ethan-1-one]
conversion of the boronate to the active drug ([2]; mouse IT pharmacokinetic study): convert to the active drug dutogliptin in both plasma and lung | lung exposure of dutogliptin after IT boronate versus IT dutogliptin itself ([2]; mouse, in vivo): significantly higher; also recorded: much higher | BALF protein level [3]: reduced

Structure (SMILES): CCCCCCCCc1ccc(CCC(N)(CO)CO)cc1 [FTY-720]
apoptosis and inflammatory cytokine release in alveolar epithelium (alveolar epithelium): inhibited apoptosis and inflammatory cytokine release | AEC2 proliferation, result in words (Primary human AEC2s): active

pIC50 (Human DPP4): 8.92
Structure (SMILES): N#C[C@@H]1C[C@H](F)CN1C(=O)CNC12CCC(C(=O)O)(CC1)CC2 [Cpd 16, 4-((2-((2S,4S)-2-cyano-4-fluoropyrrolidin-1-yl)-2-oxoethyl)amino)bicyclo[2.2.2]octane-1-carboxylic acid]

pEC50 (Primary human AEC2s; [4]): 7.17 | pEC50 (Primary human AEC2s; [5]): 7.17
Structure (SMILES): Cn1c(=O)cc(N2CCC[C@@H](N)C2)n(Cc2cc(F)ccc2C#N)c1=O [Cpd 10, (R)-2-((6-(3-aminopiperidin-1-yl)-3-methyl-2,4-dioxo-3,4-dihydropyrimidin-1(2H)-yl)methyl)-4-fluorobenzonitrile]

pEC50 (Primary human AEC2s; [4]): 6.96 | pEC50 (Primary human AEC2s; [5]): 6.96
Structure (SMILES): Cn1c(=O)cc(N2CCC[C@@H](N)C2)n(Cc2ccccc2C#N)c1=O [Cpd 7, (R)-2-((6-(3-aminopiperidin-1-yl)-3-methyl-2,4-dioxo-3,4-dihydropyrimidin-1(2H)-yl)methyl)benzonitrile]

pIC50 (Human DPP4): 9.10
Structure (SMILES): N[C@@H](CC(=O)N1CCn2c(C(F)(F)F)nc(C(=O)O)c2C1)Cc1cc(F)c(F)cc1F [Cpd 26, (R)-7-(3-amino-4-(2,4,5-trifluorophenyl)butanoyl)-3-(trifluoromethyl)-5,6,7,8-tetrahydroimidazo[1,5-a]pyrazine-1-carboxylic acid]

pEC50 (Primary human AEC2s; [4]): 7.37 | pEC50 (Primary human AEC2s; [5]): 7.37
Structure (SMILES): CS(=O)(=O)n1cc2c(n1)CN([C@H]1CO[C@H](c3cc(F)ccc3F)[C@@H](N)C1)C2 [Cpd 9, (2R,3S,5R)-2-(2,5-difluorophenyl)-5-(2-(methylsulfonyl)-2,6-dihydropyrrolo[3,4-c]pyrazol-5(4H)-yl)tetrahydro-2H-pyran-3-amine]

pEC50 (Primary human AEC2s; [4]): 6.80 | pEC50 (Primary human AEC2s; [5]): 6.80
Structure (SMILES): N#C[C@@H]1CCCN1C(=O)CNC12CC3C[C@@H](C1)C[C@@](O)(C3)C2 [Cpd 3, (2S)-1-(((1S,3R,5S)-3-hydroxyadamantan-1-yl)glycyl)pyrrolidine-2-carbonitrile]

— patent US20240115577A1, “SMALL MOLECULE REGULATORS OF ALVEOLAR TYPE 2 CELL PROLIFERATION FOR THE TREATMENT OF PULMONARY DISEASES” (THE SCRIPPS RESEARCH INSTITUTE, priority 2021, published 2024)
